Assay results: patent publication US6630135B1, “Use of sustained release antibiotic compositions in ophthalmic surgical procedures” (Alcon Laboratories, Inc., priority 1993, dated 2003)
Converted amounts (≈) assume the structure as drawn. Where two headings read alike, the source gives them in different places.

Assays:
[1] = system: Pseudomonas aeruginosa (i.e., Strain 4N3422); assay: Minimum inhibitory concentration against Pseudomonas aeruginosa Strain 4N3422; type: cell-based
From the text: The concentration of antibiotic utilized in the compositions of the present invention will vary depending on the intended use of the compositions (i.e., sterilization of the surgical field or prevention of post-surgical infections), and the relative antimicrobial activity of the specific antibiotic selected. The antimicrobial activity of antibiotics is generally expressed as the minimum concentration required to inhibit the growth of a specified pathogen. The concentration is also referred to as the “minimum inhibitory concentration” or “MIC”. The term “MIC90” refers to the minimum concentration of antibiotic required to inhibit the growth of ninety percent (90%) of a population of multiple strains of a microorganism. The concentration of an antibiotic required to totally kill a specified population of bacteria or other pathogens is referred to as the “minimum bactericidal concentration” or “MBC”. The minimum inhibitory concentrations of some of the preferred antibiotics of the present invention, relative to a specific strain of Pseudomonas aeruginosa (i.e., Strain 4N3422), are presented in the following table: […]

Staph. aureus = assay: MIC90 against multiple strains of Staph. aureus; type: cell-based
From the text: (§1) The concentration of antibiotic utilized in the compositions of the present invention will vary depending on the intended use of the compositions (i.e., sterilization of the surgical field or prevention of post-surgical infections), and the relative antimicrobial activity of the specific antibiotic selected. The antimicrobial activity of antibiotics is generally expressed as the minimum concentration required to inhibit the growth of a specified pathogen. The concentration is also referred to as the “minimum inhibitory concentration” or “MIC”. The term “MIC90” refers to the minimum concentration of antibiotic required to inhibit the growth of ninety percent (90%) of a population of multiple strains of a microorganism. The concentration of an antibiotic required to totally kill a specified population of bacteria or other pathogens is referred to as the “minimum bactericidal concentration” or “MBC”. The activity of antibiotics against Pseudomonas aeruginosa is particularly important in the present invention, because ophthalmic infections involving Pseudomonas aeruginosa represent an extremely serious condition which may ultimately result in the loss of the affected eye.

Staph. epidermidis = assay: MIC90 against Staph. epidermidis; type: cell-based
From the text: as §1

Hemo. influenzae = assay: MIC90 against Hemo. influenzae; type: cell-based
From the text: as §1

Strep. pneumoniae = assay: MIC90 against Strep. pneumoniae; type: cell-based
From the text: as §1

P. aeruginosa = assay: MIC90 against multiple strains of P. aeruginosa; type: cell-based
From the text: as §1

[2] = Ocular tissue drug concentration after topical dosing of rabbit eyes (HPLC); type: in vivo; details: New Zealand albino, 30 microliters, normal eyes, after 30 minutes
Experimental: The following formulations were tested: The route of administration was topical. The rabbits received 30 microliters of either the gel or solution formulations in both eyes. At the end of the study, the aqueous humor and cornea were collected and assayed by high performance liquid chromatography to determine the amount of drug present.

[3] = humans, one hour after administration, cited from earlier work
[4] = rabbits, subconjunctival injection; cited from earlier work
[5] = Staphylococcus aureus, read-out: MIC 90
[6] = Staphylococcus epidermidis, read-out: MIC 90
[7] = Haemophilus influenzae, read-out: MIC 90
[8] = Streptococcus pneumoniae, read-out: MIC 90
[9] = Pseudomonas aeruginosa, read-out: MIC 90

Compound: NCC[C@H](O)C(=O)N[C@@H]1C[C@H](N)[C@@H](O[C@H]2O[C@H](CN)[C@@H](O)[C@H](O)[C@H]2O)[C@H](O)[C@H]1O[C@H]1O[C@H](CO)[C@@H](O)[C@H](N)[C@H]1O [Amikacin]
- MIC ([1]; read-out: MIC): 8 µg/mL (≈ 13.7 µM)

Compound: CO/N=C(\C(=O)N[C@@H]1C(=O)N2C(C(=O)O)=C(COC(C)=O)CS[C@H]12)c1csc(N)n1 [Cefotaxime]
- MIC ([1]; read-out: MIC): 32 µg/mL (≈ 70.3 µM)

Compound: CO[C@@]1(NC(=O)Cc2cccs2)C(=O)N2C(C(=O)O)=C(COC(N)=O)CS[C@@H]21 [Cefoxitin]
- MIC ([1]; read-out: MIC): > 32 µg/mL

Compound: CC(C)(O/N=C(\C(=O)N[C@@H]1C(=O)N2C(C(=O)[O-])=C(C[n+]3ccccc3)CS[C@H]12)c1csc(N)n1)C(=O)O [Ceftazidime]
- MIC ([1]; read-out: MIC): 1 µg/mL (≈ 1.83 µM)

Compound: O=C(O)c1cn(C2CC2)c2cc(N3CCNCC3)c(F)cc2c1=O [Ciprofloxacin]
- MIC ([1]; read-out: MIC): < 0.125 µg/mL
- MIC90 (Staph. aureus; [5]): 0.5 µg/mL (≈ 1.51 µM)
- MIC90 (Staph. epidermidis; [6]): 0.4 µg/mL (≈ 1.21 µM)
- MIC90 (Hemo. influenzae; [7]): 0.015 µg/mL (≈ 0.0453 µM)
- MIC90 (Strep. pneumoniae; [8]): 2 µg/mL (≈ 6.04 µM)
- MIC90 (P. aeruginosa; [9]): 0.5 µg/mL (≈ 1.51 µM)
- concentration at 30 min ([2]; aqueous humor, read-out: drug levels in aqueous humor): 280 ng/g
- concentration at 30 min ([2]; cornea, read-out: drug levels in cornea): 10600 ng/g
- maximum aqueous humor concentration ([3]; IV injection (200 mg)): 0.16 µg/mL
- maximum aqueous humor concentration ([3]; oral dosage (1 g)): 0.33 µg/mL

Compound: C[C@@H](O)[C@H]1C(=O)N2C(C(=O)O)=C(SCCN=CN)C[C@H]12 [Imipenem]
- MIC ([1]; read-out: MIC): 1 µg/mL (≈ 3.34 µM)

Compound: CCn1cc(C(=O)O)c(=O)c2cc(F)c(N3CCNCC3)cc21 [Norfloxacin]
- MIC ([1]; read-out: MIC): < 0.5 µg/mL

Compound: CCN1CCN(C(=O)N[C@@H](C(=O)N[C@@H]2C(=O)N3[C@@H]2SC(C)(C)[C@@H]3C(=O)O)c2ccccc2)C(=O)C1=O [Piperacillin]
- MIC ([1]; read-out: MIC): < 8 µg/mL

Compound: CC1(C)S[C@@H]2[C@H](NC(=O)[C@H](C(=O)O)c3ccsc3)C(=O)N2[C@H]1C(=O)O [Ticarcillin]
- MIC ([1]; read-out: MIC): 32 µg/mL (≈ 83.2 µM)

Compound: NC[C@H]1O[C@H](O[C@H]2[C@H](O)[C@@H](O[C@H]3O[C@H](CO)[C@@H](O)[C@H](N)[C@H]3O)[C@H](N)C[C@@H]2N)[C@H](N)C[C@@H]1O [Tobramycin]
- MIC ([1]; read-out: MIC): > 8 µg/mL
- MIC90 (Staph. aureus; [5]): 6.3 µg/mL (≈ 13.5 µM)
- MIC90 (Staph. epidermidis; [6]): 56 µg/mL (≈ 120 µM)
- MIC90 (Hemo. influenzae; [7]): 13.4 µg/mL (≈ 28.7 µM)
- MIC90 (Strep. pneumoniae; [8]): 34.5 µg/mL (≈ 73.8 µM)
- MIC90 (P. aeruginosa; [9]): 20 µg/mL (≈ 42.8 µM)

Compound: Gentamicin
- MIC [1]: >8 µg/mL
- MIC90 (Staph. aureus): 12.5 µg/mL
- MIC90 (Staph. epidermidis): 12.5 µg/mL
- MIC90 (Hemo. influenzae): 0.8 µg/mL
- MIC90 (Strep. pneumoniae): 50.0 µg/mL
- MIC90 (P. aeruginosa): 8.0 µg/mL
- maximum concentration attained in the aqueous humor [4]: 8.8 µg/g
